Measurements taken from patent US20230248647A1, “SILICA HYDROGEL COMPOSITE AND ITS USE” (DelSiTech Oy, priority 2020, published 2023).
Structures can show the parent of a compound that is named as a salt.

Key:
Solubility in water = assay type: physicochemical; settings: corresponds to 0.019 mg/ml
[1] = In vivo pharmacokinetic experiment, oral and subcutaneous administration; design: species or system male SD (Sprague Dawley) rats; settings: for AUC(0-t) / Cmax / Tmax / half-life: male, Sprague-Dawley, rat, plasma
Protocol: Silica hydrogel composite #29HG was used as a depot for male SD (Sprague Dawley) rats (5 animals/dosing group) in subcutaneous (SC+a letter A-E referring to different groups) administration of Anagrelide, and for oral administration (PO). The oral dose was prepared by adding 18.00 mg of Anagrelide hydrochloride into […] of 10 w-% ethanol with vortexing and sonication to obtain a suspension with concentration of 0.5 mg/ml of Anagrelide hydrochloride. The oral dose (5 mg/kg) was provided only in 12 h study, and it was freshly made just prior to dosing. Both 12 hour and 10 d pharmacokinetic experiments were conducted for the silica hydrogel composite for 2 different anagrelide hydrochloride doses (17.5 mg/kg and 35 mg/kg), and 28 d experiment only for the dose of 35 mg/kg.
The bioanalysis was conducted by using LC-MS/MS. The desired serial concentrations of working solutions were achieved by diluting stock solution of analyte with 50% acetonitrile in water solution. 5 μL of working solutions (2, 5, 10, 20, 50, 100, 500, 1000, 5000, 10000 ng/mL) were added to 50 μL of the male blank SD Rat plasma to achieve calibration standards of 0.2-1000 ng/mL (0.2, 0.5, 1, 2, 5, 10, 50, 100, 500, 1000 ng/mL) in a total volume of 55 μL. Four quality control samples at 0.5 ng/mL, 1 ng/mL, 50 ng/mL and 800 ng/mL for plasma were prepared independently of those used for the calibration curves. These QC samples were prepared on the day of analysis in the same way as calibration standards. 55 μL of standards, 55 μL of QC samples and 55 μL of unknown samples (50 μL of plasma with 5 μL of blank solution) were added to 200 μL of acetonitrile containing IS mixture for precipitating protein respectively. Then the samples were vortexed for 30 s. After centrifugation at 4 degree Celsius, 4700 rpm for 15 min, the supernatant was diluted 3 times with water, and 10 μL of diluted supernatant was injected into the LC-MS/MS system for quantitative analysis. The mean plasma concentrations of Anagrelide Hydrochloride for 12 h experiment are shown in FIG. 4, and corresponding results for 10 d experiment in FIG. 5, and for 28 d experiment in FIG. 6.

[2] = Particle size distribution analysis by laser diffraction (Sympatec HELOS H3973); assay type: physicochemical; settings: micronized particles
Protocol: For particle size distribution analysis, the non-active silica particles (which were used in silica hydrogel composite #29HG) were dispersed in ethanol, and the analysis was conducted using a Sympatec HELOS H3973 laser diffraction instrument. The particle size distribution for non-active silica particles is shown in Table 2 (D10, D50 and D90 means that 10%, 50%, and 90% of the particles are equal or smaller than the indicated size)
The particles size distribution analysis for micronized (described in Example 1) Anagrelide HCl particles was also conducted using a Sympatec HELOS H3973 laser diffraction instrument. The particle size was mainly between 1 and 200 micrometers, where D10 was 16.6 micrometers, D50 80.4 micrometers, and D90 155 micrometers.

[3] = cited from earlier work
[4] = po, 5 mg/kg, oral suspension 5 mg/kg, 12 h experiment
[5] = sc, 17.5 mg/kg, SCA, subcutaneous silica hydrogel composite #29HG depot 17.5 mg/kg, 12 h experiment
[6] = sc, 17.5 mg/kg, SCB, subcutaneous silica hydrogel composite #29HG depot 17.5 mg/kg, 10 d experiment
[7] = sc, 35 mg/kg, SCC, subcutaneous silica hydrogel composite #29HG depot 35 mg/kg, 12 h experiment
[8] = sc, 35 mg/kg, SCD, subcutaneous silica hydrogel composite #29HG depot 35 mg/kg, 10 d experiment
[9] = sc, 35 mg/kg, SCE, subcutaneous silica hydrogel composite #29HG depot 35 mg/kg, 28 d experiment

In the case of `O=C1CN2Cc3c(ccc(Cl)c3Cl)N=C2N1` [Anagrelide HCl, Anagrelide hydrochloride], the “solubility in water as weight-%” value (Solubility in water) is reported as 0.0019 weight-%, the AUClast/D ([1]; PO, oral suspension 5 mg/kg, 12 h experiment) is reported as 64 ± 47 ng·h/mL per mg/kg and the AUClast/D ([1]; SCA, subcutaneous silica hydrogel composite #29HG depot 17.5 mg/kg, 12 h experiment) is reported as 1.67 ± 0.4 ng·h/mL per mg/kg. The AUClast/D ([1]; SCB, subcutaneous silica hydrogel composite #29HG depot 17.5 mg/kg, 10 d experiment) was 29.8 ± 12.5 ng·h/mL per mg/kg, the AUClast/D ([1]; SCC, subcutaneous silica hydrogel composite #29HG depot 35 mg/kg, 12 h experiment) was 0.99 ± 0.3 ng·h/mL per mg/kg and the AUClast/D ([1]; SCD, subcutaneous silica hydrogel composite #29HG depot 35 mg/kg, 10 d experiment) was 21.4 ± 9.1 ng·h/mL per mg/kg. For the same molecule, the clinical symptoms ([1]; SD rats, entire experiment (PO 5 mg/kg; SC #29HG depot 17.5 and 35 mg/kg)) was “No abnormal clinical symptoms were observed”, the “release behaviour from plasma concentration results” value ([1]; delivered as solid particles in silica hydrogel composite, SC, SD rats) was “sustained and controlled release is achieved” and the AUC(0-t) [1, 4] was 320 ± 235 ng·h/mL. It also gave a Cmax [1, 4] of 62 ± 47 ng/mL, a Tmax [1, 4] of 3 ± 2 h and a half-life [1, 4] of 1.3 ± 0.27 h. For the same molecule, the AUC(0-t) [1, 5] was 29.2 ± 7.1 ng·h/mL, the Cmax [1, 5] was 4.55 ± 1.41 ng/mL and the Tmax [1, 5] was 1.1 ± 0.55 h. The half-life [1, 5] was 4.92 ± 0.85 h, the AUC(0-t) [1, 6] was 521 ± 218 ng·h/mL and the Cmax [1, 6] was 3.58 ± 1.51 ng/mL. For the same molecule, the Tmax [1, 6] was 96 ± 102 h, the AUC(0-t) [1, 7] was 34.5 ± 10.6 ng·h/mL and the Cmax [1, 7] was 6.3 ± 4.2 ng/mL. The Tmax [1, 7] was 0.8 ± 0.27 h, the half-life [1, 7] was 7.03 ± 1.04 h and the AUC(0-t) [1, 8] was 749 ± 320 ng·h/mL. It also gave a Cmax [1, 8] of 5.29 ± 2.28 ng/mL, a Tmax [1, 8] of 154 ± 79 h and an AUC(0-t) [1, 9] of 1600 ng·h/mL. For the same molecule, the Tmax [1, 9] was 188 h, the half-life [1, 9] was 167 h and the D10 [2] was 16.6 micrometers. The D50 [2] was 80.4 micrometers, the D90 [2] was 155 micrometers and the solubility in water [3] was 19 µg/mL.

In the case of `O=C1CN2Cc3c(ccc(Cl)c3Cl)N=C2N1` [Anagrelide], the “solubility of base form compared with Anagrelide HCl” value ([3]; water) is listed as “even lower solubility than Anagrelide HCl”.
